Reference: PubChem BioAssay AID248 (DTP/NCI, 2004)
Toxic doses and inconclusive results are not listed. Rule as the data show it: active = T/C of 150% or more; inactive = T/C below 125%.

Tested on: L1210 leukemia ip in BDF1 mice, survival T/C
Assay: NCI In Vivo Anticancer Drug Screen. Data for tumor model L1210 Leukemia (intraperitoneal) in B6D2F1 (BDF1) mice
Settings: endpoint: mean survival time, higher = longer survival
Method in brief: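 Each compound was tested against a transplantable tumor grown in mice. The endpoint was survival, with treated animals benchmarked against vehicle controls as a simple ratio.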

[1] = dose: 100.0 mg/kg/injection, schedule: Q04DX003 (ip), vehicle: saline with Tween-80
[2] = dose: 200.0 mg/kg/injection, schedule: Q04DX003 (ip), vehicle: saline with Tween-80
[3] = dose: 400.0 mg/kg/injection, schedule: Q04DX003 (ip), vehicle: saline with Tween-80
[4] = dose: 100.0 mg/kg/injection, schedule: Q01DX001 (ip), vehicle: saline
[5] = dose: 200.0 mg/kg/injection, schedule: Q01DX001 (ip), vehicle: saline
[6] = dose: 400.0 mg/kg/injection, schedule: Q01DX001 (ip), vehicle: saline
[7] = dose: 100.0 mg/kg/injection, schedule: Q01DX009 (ip), vehicle: Klucel (hydroxypropylcellulose) (HPC)
[8] = dose: 200.0 mg/kg/injection, schedule: Q01DX009 (ip), vehicle: Klucel (hydroxypropylcellulose) (HPC)
[9] = dose: 400.0 mg/kg/injection, schedule: Q01DX009 (ip), vehicle: Klucel (hydroxypropylcellulose) (HPC)

Measured: T/C

COc1ccccc1NC1=C(NC(=O)Cc2ccccc2)C(=O)c2ccccc2C1=O
inactive: [1] 98 % of control | [2] 96 % of control | [3] 94 % of control

O=[N+]([O-])c1cc(/C=N/Nc2nnc(N/N=C/c3ccc(Cl)c([N+](=O)[O-])c3)c3ccccc23)ccc1Cl
inactive: dose: 50.0 mg/kg/injection, schedule: Q01DX001 (ip), vehicle: saline 106 % of control | [4] 96 % of control | [5] 100 % of control | [6] 100 % of control

CC(C)COCCCN
inactive: dose: 10.0 mg/kg/injection, schedule: Q01DX009 (ip), vehicle: saline 95 % of control | dose: 50.0 mg/kg/injection, schedule: Q01DX009 (ip), vehicle: saline 95 % of control

CC(C)CNCc1ccc([N+](=O)[O-])cc1
inactive: dose: 75.0 mg/kg/injection, schedule: Q01DX001 (ip), vehicle: carboxymethylcellulose (CMC) 97 % of control | dose: 150.0 mg/kg/injection, schedule: Q01DX001 (ip), vehicle: carboxymethylcellulose (CMC) 95 % of control

C/C(=N\O)c1ccc2nc(C)cc(Cl)c2c1
inactive: [4] 102 % of control | [5] 109 % of control | [6] 95 % of control

O=C(O)C1CC2CCC1CC2 (centres undefined)
inactive: [4] 104 % of control | [7] 100 % of control | [1] 92 % of control | [5] 93 % of control | [8] 92 % of control | [2] 95 % of control | [6] 100 % of control | [9] 92 % of control | [3] 101 % of control

C=C=CCCCC
inactive: dose: 75.0 mg/kg/injection, schedule: Q01DX001 (ip), vehicle: saline 101 % of control | dose: 75.0 mg/kg/injection, schedule: Q04DX003 (ip), vehicle: saline 112 % of control | dose: 150.0 mg/kg/injection, schedule: Q01DX001 (ip), vehicle: saline 111 % of control | dose: 150.0 mg/kg/injection, schedule: Q04DX003 (ip), vehicle: saline 104 % of control | dose: 300.0 mg/kg/injection, schedule: Q01DX001 (ip), vehicle: saline 102 % of control | dose: 300.0 mg/kg/injection, schedule: Q04DX003 (ip), vehicle: saline 101 % of control

NC(Cc1ccc(O)cc1)C(=O)CCl (centres undefined)
inactive: dose: 25.0 mg/kg/injection, schedule: Q04DX002 (ip), vehicle: saline 110 % of control | dose: 50.0 mg/kg/injection, schedule: Q04DX002 (ip), vehicle: saline 105 % of control

COc1ccc(Cl)cc1NC(=O)Oc1ccc(NC(C)=O)cc1
inactive: [7] 96 % of control | [8] 102 % of control | [9] 98 % of control

O=C1C(Cl)CCCCC1Cl (centres undefined)
inactive: dose: 100.0 mg/kg/injection, schedule: Q01DX009 (ip), vehicle: acetone 93 % of control | dose: 100.0 mg/kg/injection, schedule: Q04DX003 (ip), vehicle: acetone 111 % of control | dose: 200.0 mg/kg/injection, schedule: Q01DX009 (ip), vehicle: acetone 91 % of control | dose: 200.0 mg/kg/injection, schedule: Q04DX003 (ip), vehicle: acetone 111 % of control | dose: 400.0 mg/kg/injection, schedule: Q04DX003 (ip), vehicle: acetone 92 % of control
